The nature of series [1]: Plasma protein binding by equilibrium dialysis, human plasma. It is filed as in vitro ADME. Particulars: equilibrium dialysis vs PBS, 37°C, read-out: %Protein Binding ± SD (converted). The method, then:
(§1) Radiolabeled MBX-102 acid was prepared as a 1 mL ethanol solution at a concentration of 50 μM (1 mCi total). […] Final solvent concentrations were 1% of the total volume. Plasma was stored at −20°C. Prior to use, it was thawed and spun at approximately 2000 rpm for 5 minutes to remove any precipitated material. The pH was adjusted to pH 7.4 by careful addition of NaH2PO4. A 1 mL sample of spiked plasma was prepared by direct dilution of [^3H]-MBX-102 acid stock solution into plasma and then added to one side of an equilibrium dialysis chamber. The other chamber was filled with 1 mL of 0.01 M phosphate buffered saline (PBS). The dialysis apparatus was placed in a water bath at 37°C and rotated at 20 rpm. […] Once equilibrium was established, the contents of the cell chambers were removed and analyzed by liquid scintillation counting. The chambers were sampled in triplicate. […] The recovery percentage was found not to vary with MBX-102 acid concentration.
For orientation: In equilibrium dialysis free small molecules cross a membrane that holds back macromolecules.

Series [2] can be described thus: Plasma protein binding by equilibrium dialysis, mouse plasma. The series is classed as in vitro ADME, CD-1 mice. Particulars: equilibrium dialysis vs PBS, 37°C, read-out: %Protein Binding ± SD (converted). The protocol:
as §1

In series [3] the test system is human alpha-1-acid glycoprotein. The series can be described thus: Equilibrium dialysis binding to purified human alpha-1-acid glycoprotein. The series is classed as in vitro ADME. As to conditions: purified human alpha-1-acid glycoprotein 22.5 μM, data not shown. The protocol: Stock solutions of human serum albumin and alpha-1-acid glycoprotein were prepared in PBS buffer. […] The spiked protein solution (175 μL) was added to one side of an equilibrium dialysis chamber, and an equal volume of PBS buffer was added to the other chamber. Dialysis was allowed to reach equilibrium and the binding to protein was determined by liquid scintillation counting of samples from both chambers as described above.

In series [4] the target is T1, mouse serum albumin (Mus musculus, UniProt P07724).
T1 construct: purchased Sigma
The series is described as follows: Albumin binding by surface plasmon resonance (SPR), MSA. The method, then:
(§2) The characterization of the binding of MBX-102 acid against human, mouse, and rat albumin was performed using SPR-based biosensors (Biosensor Tools, Salt Lake City, Utah, USA). The assay methods used to assess the binding of MBX-102 acid to human, mouse, and rat albumins have been described previously. Briefly, each albumin was immobilized onto a CM5 sensor chip using standard amine coupling. Immobilization densities were between 10 000 and 13 000 RU. […] Each of the 16 different concentrations was tested in duplicate. […] All binding data were collected at 37°C. The binding response profile of MBX-102 acid over the three different albumin surfaces was evaluated and the binding constants for the high-affinity site were determined using a two-independent-site model. Conversion from KD to %bound was performed as previously described.
A general note: Surface plasmon resonance follows binding to a sensor surface in real time, without labels.

The target in series [5] is T2, rat serum albumin (Rattus norvegicus, UniProt P02770).
T2 construct: purchased Sigma
The series is described as follows: Albumin binding by surface plasmon resonance (SPR), RSA. The protocol:
as §2

The target in series [6] is T3, human PPAR-γ ligand-binding domain (Homo sapiens, UniProt P37231).
T3 construct: GST-PPARγ-LBD (5 nM), Tb-labeled anti-GST antibody (5 nM); purchased Invitrogen
T3 sequence (P37231 238-503 limits assumed): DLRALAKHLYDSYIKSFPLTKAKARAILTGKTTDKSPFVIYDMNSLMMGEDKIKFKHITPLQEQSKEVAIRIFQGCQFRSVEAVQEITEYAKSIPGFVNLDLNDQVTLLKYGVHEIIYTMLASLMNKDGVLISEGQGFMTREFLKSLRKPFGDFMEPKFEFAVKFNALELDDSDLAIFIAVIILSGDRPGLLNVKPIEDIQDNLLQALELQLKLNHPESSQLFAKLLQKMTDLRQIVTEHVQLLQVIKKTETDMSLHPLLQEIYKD
The series can be described thus: Lanthascreen TR-FRET NCOR corepressor displacement assay. It is filed as biochemical. Particulars: for IC50: 3 experiments, mean ± SD, read-out: IC50 displacement of NCOR corepressor peptide. The method, then: Assays were performed according to the manufacturer’s instructions. […] Life Science, Lowell, Mass, USA). […] The plate was covered and incubated for 4 hours at room temperature. The time resolved fluorescence resonance energy transfer (TR-FRET) signal was measured using a Pherastar fluorescence counter (BMG labtech, Offenburg, Germany). The ratio of the emission intensity of the acceptor (Fluorescein: λ = 520 nm) divided by the emission intensity of the donor (Tb: λ = 490 nm) was then calculated to determine the degree of NCOR binding. Each measurement was performed in quadruplicate.

“And” between values parts separate entries of the source, which are not always exact repeats. Equal values may be shown once. Read-outs that look alike come from different tables or passages of the source.

T2 sequence (P02770 25-608): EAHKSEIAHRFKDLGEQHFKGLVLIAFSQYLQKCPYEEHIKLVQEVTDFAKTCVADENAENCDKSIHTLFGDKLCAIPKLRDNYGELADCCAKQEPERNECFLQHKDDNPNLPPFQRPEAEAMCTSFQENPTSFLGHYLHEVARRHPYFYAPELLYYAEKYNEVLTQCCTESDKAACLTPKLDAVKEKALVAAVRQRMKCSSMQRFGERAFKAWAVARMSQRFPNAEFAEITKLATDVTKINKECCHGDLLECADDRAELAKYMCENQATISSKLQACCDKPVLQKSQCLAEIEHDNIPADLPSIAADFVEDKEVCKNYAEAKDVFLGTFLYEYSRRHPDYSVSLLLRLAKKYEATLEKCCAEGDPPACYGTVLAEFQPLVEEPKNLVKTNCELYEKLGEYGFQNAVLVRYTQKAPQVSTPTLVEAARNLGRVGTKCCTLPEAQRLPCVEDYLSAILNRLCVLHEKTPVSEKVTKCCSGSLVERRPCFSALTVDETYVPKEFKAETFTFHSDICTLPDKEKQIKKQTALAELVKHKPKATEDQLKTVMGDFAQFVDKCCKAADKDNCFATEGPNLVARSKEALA
T1 sequence (P07724 25-608): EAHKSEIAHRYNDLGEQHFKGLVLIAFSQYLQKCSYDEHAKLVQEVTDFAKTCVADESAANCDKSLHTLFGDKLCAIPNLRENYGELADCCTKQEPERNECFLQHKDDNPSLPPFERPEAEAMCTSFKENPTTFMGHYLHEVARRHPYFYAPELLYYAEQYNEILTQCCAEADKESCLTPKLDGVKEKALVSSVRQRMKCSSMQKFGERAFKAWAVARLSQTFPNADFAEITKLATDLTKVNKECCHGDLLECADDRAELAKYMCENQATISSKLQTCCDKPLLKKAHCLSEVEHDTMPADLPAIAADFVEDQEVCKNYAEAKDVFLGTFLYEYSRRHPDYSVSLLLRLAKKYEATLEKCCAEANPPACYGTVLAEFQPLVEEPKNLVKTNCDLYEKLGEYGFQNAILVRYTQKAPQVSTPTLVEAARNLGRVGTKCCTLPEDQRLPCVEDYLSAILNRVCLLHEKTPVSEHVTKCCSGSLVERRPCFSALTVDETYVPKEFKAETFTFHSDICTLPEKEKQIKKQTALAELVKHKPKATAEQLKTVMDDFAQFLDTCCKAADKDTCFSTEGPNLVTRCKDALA

As to `O=C(O)[C@H](Oc1cccc(C(F)(F)F)c1)c1ccc(Cl)cc1` (stereo in doubt) [MBX-102 acid], the fraction unbound at 400 µM in series [1] (pH 7.4, MBX-102 acid 400 μM) is 0.002; in series [2] (CD-1, pH 7.4, MBX-102 acid 400 μM) it was 0.002. Also, the fraction unbound at 600 µM in series [1] (pH 7.4, MBX-102 acid 600 μM) was 0.002; in series [2] (CD-1, pH 7.4, MBX-102 acid 600 μM), 0.003. In addition, the fraction unbound at 1000 µM in series [1] (pH 7.4, MBX-102 acid 1000 μM) was 0.003; in series [2] (CD-1, pH 7.4, MBX-102 acid 1000 μM) it was 0.005. For the same compound, the fraction unbound at 2000 µM was 0.002 in series [1] (pH 7.4, MBX-102 acid 2000 μM) and 0.005 in series [2] (CD-1, pH 7.4, MBX-102 acid 2000 μM). Further, in series [2] (CD-1, pH 7.4, MBX-102 acid 1500 μM), the fraction unbound at 1500 µM is 0.002. The “binding to human alpha 1-acid glycoprotein” value in series [3] is given as < 5%. Besides, the “%Bound” value in series [4] (converted from KD) is 99.2%; in series [5] (RSA, converted from KD), 98.1%. For the same compound, the Kd (usually the constant that tells how readily two partners part at equilibrium) came out at 5.5 µM in series [4] (high-affinity site, two-independent-site model, 37°C, pH 7.4) and 12.8 µM in series [5] (RSA, high-affinity site, two-independent-site model, 37°C, pH 7.4). Also, in series [5] (rat, rat serum albumin immobilized on a CM5 sensor chip, pH 7.4, RSA, converted from KD, read-out: %Bound), the fraction unbound was < 0.02. Also, the IC50 – broadly, the concentration at which inhibition is half-maximal – in series [6] (0% serum) was 11 µM and 10.6 µM; in series [6] (10% (v/v) human serum) it was 98.5 ± 6.6 µM; in series [6] (40% (v/v) human serum) it was 200 ± 6.4 µM; in series [6] (40% (v/v) mouse serum), 28.1 ± 2.6 µM; in series [6] (40% (v/v) rat serum), 57.9 ± 14.2 µM. For the same compound, the “fold shift in the IC50” value in series [6] (40% human serum versus no serum) is given as ≤ 19 fold. The “FC, IC50 fold change human-to-mouse serum” value in series [6] (40% serum) is 7 and 7.17. For the same compound, the “FC, IC50 fold change human-to-rat serum” value in series [6] (40% serum) is 4 and 3.59.

The values are drawn from PMC2535826, “Cross-Species Differential Plasma Protein Binding of MBX-102/JNJ39659100: A Novel PPAR-γ Agonist” (PPAR Research, 2008).
